Measurements taken from the NIST ThermoML archive (doi:10.1021/je201053v).
± gives the expanded uncertainty stated by the source.

Conditions: Liquid; for mass density: 293.15 K, 101.33 kPa, Vibrating tube method

| SMILES | mass density [kg/m3] | other results |
| --- | --- | --- |
| Cc1ccccc1C [1,2-dimethylbenzene] | 879.68 ± 0.93 | vapor or sublimation pressure (417.58 K): 101.33 ± 1.9 kPa |
| Cc1ccc(C)cc1 [1,4-dimethylbenzene] | 861.21 ± 0.91 | vapor or sublimation pressure (411.51 K): 101.33 ± 1.9 kPa |
| CCCCO [butan-1-ol] | 809.5 ± 0.24 | vapor or sublimation pressure (390.85 K): 101.33 ± 1.3 kPa |
| CCc1ccccc1 [ethylbenzene] | 866.54 ± 0.58 | vapor or sublimation pressure (409.27 K): 101.33 ± 1.3 kPa |
| Cc1cccc(C)c1 [1,3-dimethylbenzene] | 864.11 ± 0.91 | vapor or sublimation pressure (412.27 K): 101.33 ± 1.4 kPa |
